Test results from US20250387419A1, “PARP INHIBITOR-RESISTANT PATIENT TREATED WITH TH-302” (ASCENTAWITS PHARMACEUTICALS, LTD., priority 2021, published 2025).

Columns and labels:
[1] = tested on: BRCA-mutated Capan-1 cell line; assay: In vitro cell proliferation inhibition (CTG); type: cell-based, human; settings: for IC50: Homo sapiens, CAPAN-1, Capan-1, 3 h treatment, 72 h
Description: (§1) The applicant specially studied in vitro cell proliferation inhibition of Capan-1 and BxPc-3 cell lines by the hypoxia-activated anti-cancer prodrugs TH-302 and tirapazamine under normoxia and hypoxia. The Capan-1 cell line was a BRCA-mutated cell line, and the BxPc-3 cell line was a BRCA wild-type (i.e., non-BRCA-mutated) cell line. This experiment was intended to verify the difference of the hypoxia-activated anti-cancer prodrugs, TH-302 and tirapazamine, in sensitivity to BRCA mutations.
(§2) • 1) Capan-1/BxPc-3 cell suspensions were added to two types of 24-well plates, 495 μL each well. Density of the cells was 6×10^4 per well. 24-well plates with glass inserts were used in hypoxic tests, and ordinary plastic 24-well plates were used in normoxic tests. • 2) The cells were incubated overnight in an incubator at 37° C. in 5% CO2. • 3) Compound Processing
(§3) A hypoxia workstation was tuned to create a hypoxic environment (O2<0.01%), and an oxygen indicator was used to confirm the hypoxia in the workstation.
(§4) 24 hours after cell seeding, the 24-well plates with glass inserts were transferred into the hypoxia workstation.
(§5) The 24-well plates were placed on vortex shakers, uncovered and shaken to allow air exchange for 5 minutes.
(§6) To each well in a monotherapy group, a 100× test compound solution was added.
(§7) 24 hours after cell seeding, 5 μL of the 100× test compound solution was added to each well. Three replicate wells were set up for each test group.

[2] = tested on: BRCA wild-type BxPc-3 cell line; assay: In vitro cell proliferation inhibition (CTG); type: cell-based; settings: for IC50: Homo sapiens, BXPC-3, BxPc-3, 3 h treatment, 72 h
Description: as §1, §2, §3, §4, §5, §6, §7

## Nc1n[n+]([O-])c2ccccc2[n+]1[O-] [tirapazamine, reference compound]
[1]; Capan-1
  Ratio (21% O2/0.01% O2): >68.82
[1]; 21% O2
  IC50: > 2000 µM
[1]; <0.01% O2
  IC50: 29.1 µM
[2]; BxPc-3
  Ratio (21% O2/0.01% O2): >60.19
[2]; 21% O2
  IC50: > 2000 µM
[2]; <0.01% O2
  IC50: 33.2 µM
